Measurements as given in paper PMC8058764 (Chemical Research in Toxicology, 2021).

Tests used:
[1] = tested on: neonatal pooled HLMs; assay: Inhibition of DHEA-S metabolism; type: biochemical, human; settings: DHEA-S 50 μM, HLMs 0.05 mg/mL, lopinavir 8 μM without or with ritonavir 0.5 μM, 30 min
[2] = Lopinavir intrinsic clearance by adult human liver microsomes; type: in vitro ADME
[3] = Lopinavir intrinsic clearance by neonatal human liver microsomes; type: in vitro ADME; settings: for mean lopinavir percent loss: lopinavir 1 μM, 30 min
[4] = tested on: CYP17A1; settings: NCI-H295R cells; cited from earlier work
[5] = tested on: CYP21A2; settings: NCI-H295R cells; cited from earlier work
[6] = both, human, pooled adult human liver microsomes, pH 7.4
[7] = human, pooled neonatal human liver microsomes, pH 7.4

## Cc1cccc(C)c1OCC(=O)N[C@@H](Cc1ccccc1)[C@@H](O)C[C@H](Cc1ccccc1)NC(=O)[C@H](C(C)C)N1CCCNC1=O [lopinavir]
[1]
  formation rate of 16α-hydroxy DHEA-S in neonatal HLMs: 1.19 nmol/min/mg protein
[2]; adult HLMs 0.02 mg/mL, lopinavir 1 μM, 30 min
  mean lopinavir percent loss: about 94%
[2]; adult HLMs 0.02 mg/mL, lopinavir 1 μM, ritonavir 62.5 nM
  lopinavir loss in presence of ritonavir: less than 20%
[2]; [6]
  half-life at 1 μM: 7.18 min
  microsomal CLint at 1 μM: 4830 µL/min/mg
[3]; [7]
  half-life at 1 μM: 52.1 min
  microsomal CLint at 1 μM: 133 µL/min/mg
[3]; neonatal HLMs 0.02 mg/mL
  mean lopinavir percent loss: 21%
[3]; neonatal HLMs 0.1 mg/mL
  mean lopinavir percent loss: 32%
[4]
  inhibition of CYP17A1: moderate inhibition
[5]
  inhibition of CYP21A2: moderate inhibition
